In PMC3486515 (Investigational new drugs, 2010):
Where “and” joins values, the source holds several entries; their conditions need not be identical. Identical values can stand only once. Entries after “also recorded” stand apart in the source; their conditions may differ.

Tests used:
[1] = tested on: patients with advanced solid tumors
advanced solid tumors = assay: Objective response by RECIST; type: in vivo, human
[2] = tested on: patients with advanced solid tumors; settings: human, in vivo
[3] = tested on: refractory chronic lymphocytic leukemia (CLL); settings: cited from earlier work
refractory solid tumors = settings: 72-hr infusion schedule; cited from earlier work
IL-6 = assay: Serum cytokine levels by cytokine bead array and ELISA; settings: prior to and after flavopiridol infusion
[4] = Plasma pharmacokinetics, LC/MS/MS, non-compartmental analysis
[5] = Flavopiridol protein binding in patient PK samples by micro-equilibrium dialysis; settings: for concentration at 4 h: human, plasma, intravenous, Mean free flavopiridol plasma concentration at the end of the 4-hour infusion
[6] = All dose levels, 34 pts, first dose, mean ± SD
[7] = dose level 1, 1B (30+30 mg/m^2 bolus+infusion), 6 pts, first dose, mean ± SD
[8] = dose level 2, 2B (30+45 mg/m^2 bolus+infusion), 9 pts, first dose, mean ± SD
[9] = dose level 3 (30+60 mg/m^2 bolus+infusion), 9 pts, first dose, mean ± SD
[10] = dose level 4 (30+75 mg/m^2 bolus+infusion), 2 pts, first dose, mean ± SD
[11] = dose level −1, −1B (20+20 mg/m^2 bolus+infusion), 8 pts, first dose, mean ± SD

C[C@@H]1C[C@H]2[C@@H]3CCC4=CC(=O)C=C[C@]4(C)[C@@]3(F)[C@@H](O)C[C@]2(C)[C@@]1(O)C(=O)CO [dexamethasone]
Effect on frequency/incidence of CKRS ([1]; prophylactic dexamethasone 20 mg prior to bolus dose of flavopiridol): did not impact the frequency of CKRS; also recorded: did not impact the incidence of CKRS; also recorded: not associated with decreased occurrence of CKRS

CN1CC[C@H](c2c(O)cc(O)c3c(=O)cc(-c4ccccc4Cl)oc23)[C@H](O)C1 [flavopiridol]
Patients off study for progressive disease (PD) (advanced solid tumors; 34 patients): 18 patients | Antitumor (objective) responses (advanced solid tumors; 34 patients with advanced solid tumors, RECIST): No antitumor responses were observed; also recorded: No objective responses were observed | Patients with PD (advanced solid tumors; after completing two cycles): seventeen | Adverse event: Deep venous Thrombosis [2]: 1 | Adverse event: Diaphories [2]: 8 (24) N (%) | Adverse event: Dizziness [2]: 6 (35) N (%) | Adverse event: Dysphagia [2]: 1 | Adverse event: Dyspnea [2]: 5 | Adverse event: Elevated Alk Phos [2]: 2 | Adverse event: Febrile neutropenia [2]: 1 | Adverse event: Fever [2]: 4 (12) N (%) | Adverse event: Hyperbilrubinemia [2]: 4 (12) N (%) | Adverse event: Hypercalcemia [2]: 1 | Adverse event: Hypoxemia [2]: 2 | Adverse event: Nausea and/or vomiting [2]: 20 (59) N (%) | Adverse event: Somonolence [2]: 4 (12) N (%) | Adverse event: Tumor lysis syndrome [2]: 1 | Patients off study for grade 3 AEs [2]: 6 patients | Patients off study for grade 3 AST/ALT [2]: 2 n | Patients off study for grade 3 CKRS [2]: 4 n | Patients with CKRS [2]: 41% | Time to resolution of CKRS symptoms [2]: ≤ 6 h | Partial response rate ([3]; PK-directed schedule, single agent, CLL): 40% | Response rate ([3]; phase II study, refractory CLL patients): approximately 50% | MTD (bolus+infusion) ([3]; refractory CLL patients): 30+50 mg/m^2 | Maximum-tolerated dose (MTD), infusion ([3]; refractory CLL, 4-hr infusion): 50 mg/m^2 | Maximum-tolerated dose (MTD), bolus ([3]; refractory CLL, 30-minute loading dose): 30 mg/m^2 | Major dose-limiting toxicity (DLT) (refractory solid tumors): Secretory diarrhea | IL-6 serum levels (IL-6): associated with flavopiridol infusion | Other serum cytokines (IL-2, IL-4, IL-10, TNF-α, IFNγ) (IL-6): No other cytokines were associated with flavopiridol infusion | Mean end-of-infusion concentration (C0.5) ([4]; 20 mg/m^2 bolus dose): 0.91 ± 0.26 mM | Mean end-of-infusion concentration (C0.5) ([4]; 30 mg/m^2 bolus dose): 1.42 ± 0.66 mM | Dose proportionality of plasma concentrations (Cmax) and AUC ([4]; 5 doses from 40 to 105 mg/m^2): increased proportionally with dose; also recorded: proportional increases in Cmax and AUC | AUCO-∞ [4, 6]: 13.6 ± 7.0 hr x µM | CL [4, 6]: 12.7 ± 6.3 L/hr/m^2 | V2 (volume of distribution) [4, 6]: 241 ± 149 L/m^2 | AUCO-∞ [4, 7]: 13.2 ± 3.4 hr x µM | CL [4, 7]: 11.9 ± 3.0 L/hr/m^2 | V2 (volume of distribution) [4, 7]: 198 ± 82 L/m^2 | AUCO-∞ [4, 8]: 14.3 ± 6.8 hr x µM | CL [4, 8]: 15.3 ± 5.8 L/hr/m^2 | Cmax [4, 8]: 1790 ± 830 nM | V2 (volume of distribution) [4, 8]: 307 ± 155 L/m^2 | AUCO-∞ [4, 9]: 16.6 ± 8.6 hr x µM | CL [4, 9]: 16.5 ± 7.0 L/hr/m^2 | V2 (volume of distribution) [4, 9]: 309 ± 168 L/m^2 | AUCO-∞ [4, 10]: 20.8 hr x µM and 20.8 ± 5.6 hr x µM | CL [4, 10]: 13.1 ± 3.6 L/hr/m^2 | Cmax [4, 10]: 2710 ± 1080 nM | V2 (volume of distribution) [4, 10]: 260 ± 28 L/m^2 | AUCO-∞ [4, 11]: 7.9 hr x µM and 7.9 ± 4.2 hr x µM | CL [4, 11]: 6.1 ± 2.5 L/hr/m^2 | V2 (volume of distribution) [4, 11]: 117 ± 99 L/m^2 | AUC(0-inf) ([4]; human, plasma, intravenous, AUC0–∞, overall mean, all doses (40–105 mg/m^2), 34 patients): 13.6 ± 7 µM·h | half-life ([4]; human, plasma, intravenous, T1/2, All dose levels, 34 pts, first dose, mean ± SD): 852 ± 504 min | Tmax ([4]; human, plasma, intravenous, Tmax, All dose levels, 34 pts, first dose, mean ± SD): 2.02 ± 1.87 h | concentration at 4 h ([5]; patients who did not experience CKRS (N=20), cycle 1): 20 ± 9 nM | concentration at 4 h ([5]; patients with grade 1 or higher CKRS during cycle 1): 35 ± 26 nM | Mean free flavopiridol AUC ([5]; patients with CKRS during cycle 1): 318 ± 220 nM·h | Mean free flavopiridol AUC ([5]; patients without observed CKRS during cycle 1): 215 ± 103 nM·h | Maximum-tolerated dose, bolus ([1]; 30-min bolus, weekly for 4 weeks on a 6-week cycle, patients with advanced solid tumors, dose level −1B): 20 mg/m^2 | Maximum-tolerated dose, infusion ([1]; infusion over 4 hours after bolus, weekly for 4 weeks on a 6-week cycle, patients with advanced solid tumors, dose level −1B): 20 mg/m^2 | Deaths attributed to CKRS ([1]; on study): One death on the study was attributed to CKRS | MTD (bolus+infusion) ([1]; patients with advanced solid tumors): 20+20 mg/m^2
